Data from patent US5789188A, “Tetracycline-efflux pump inhibitor screening methods” (priority 1996, dated 1998).
Converted amounts (≈) assume the structure as drawn. Like-named read-outs stand apart in the source and are kept apart here.

How the values were obtained:
[1] = tested on: E. coli MC1061 containing pCBSal; assay: MIC (LD 90) of maximally induced tetA (plasmid pCBSal); assay type: cell-based; conditions: Escherichia coli, read-out: MIC (LD 90) of Maximally Induced tetA, pCBSal
Experimental: (§1) E. coli MC1061 containing either pGG57, pCBSal or pGG75 were used to determine the MIC (LD 90) for tetracycline as well as six tetracycline analogs. […] MIC studies were performed in the presence of 0.01 mM IPTG for E. coli MC1061 containing pGG57. […] All of these MIC studies were done in duplicate.

[2] = tested on: E. coli MC1061 containing pGG57; assay: microbe, parasite or virus in culture; assay type: cell-based; conditions: Escherichia coli, read-out: MIC (LD 90) of Maximally Induced tetK, pGG57
Experimental: as §1

[3] = tested on: E. coli MC1061 containing pGG75; assay: MIC (LD 90) of maximally induced tetC (plasmid pGG75); assay type: cell-based; conditions: Escherichia coli, read-out: MIC (LD 90) of Maximally Induced tetC, pGG75
Experimental: as §1

strain KB3ind = assay type: cell-based, E. coli; conditions: for response in the Tetracycline Assay (β-galactosidase induction): strain KB3ind, plate assay (plate or liquid assay); for Induction Assay response: key: ±: Possible positive; +: Weak positive; ++: Stronger positive; -: Negative
Experimental: (§2) To detect tetracyclines, a plate assay is developed that is similar to one described previously (11). Cells are grown in Luria Broth (adjusted with NaOH to pH 7.5) with 25 μg/ml of kanamycin to a cell density of 0.5 absorbance units (600 nm). A 25 ml sample of the culture is harvested by centrifugation and resuspended in 1 ml of broth. The cells are mixed with 25 ml of soft agar (1%, wt/vol) and poured onto 100 ml of LB (pH 7.5)+ kanamycin, within a 22 cm^2 NUNC plate (Corning). Samples are applied by spotting from 2 to 15 μl, or by applying a disc impregnated with a compound, and the plate is incubated for 3-4 hours at 37° C. The plates are overlaid with a solution containing 13.5 mg of 6-bromo-2-naphthyl-β-D-galactopyranoside side and 86.5 mg of fast blue RR (Sigma) dissolved in 2 ml of dimethylsulfoxide, to which 25 ml of soft agar is added. β-Galactosidase is detected by the presence of a purple spot.

[4] = tested on: tetracycline efflux pump (strain KB4 or KB5); assay: Inhibition Assay, plate assay (agar with 5 ng/ml of tetracycline); note: key: ±: Possible positive; +: Weak positive; ++: Stronger positive; -: Negative; assay type: cell-based, E. coli; conditions: disc on assay plate
Experimental: as §2
Two assays are developed for detecting inhibitors of the tetA gene product (using strain KB5), or the tetK gene product (using strain KB4). In the Inhibition Assay, cells of strain KB4 or KB5 are treated as described in the tetracycline screen above, except that the agar medium contains 5 ng/ml of tetracycline. Alternatively a Liquid Assay is also developed. Cells are first grown in LB (pH 7.5). Then cells are shifted to medium containing 5 ng/ml of tetracycline, and tetracycline-containing samples are added to aliquots. Cells are then incubated and assayed as described for the Tetracycline Assay. […] However, the intracellular concentration is reduced in tetracycline resistant strains due to the action of the efflux pump, so more tetracycline would be required in the medium to accumulate sufficient tetracycline inside the cell to induce. The Inhibition Assay is designed to detect compounds that cause β-galactosidase induction in the presence of sub-inducing levels of tetracycline for a resistant strain.

Row | Molecule | MIC [1] [µg/mL] | MIC [2] [µg/mL] | MIC [3] [µg/mL] | response in the Tetracycline Assay (β-galactosidase induction) (strain KB3ind) | Inhibition Assay response [4] | Induction Assay response (strain KB3ind) | Induction Assay response (strain KB3ind; disc on assay plate)
1 | CN(C)[C@@H]1C(=O)C(C(N)=O)=C(O)[C@@]2(O)C(=O)C3=C(O)c4c(O)cccc4C[C@H]3C[C@@H]12 [6-demethyl 6-deoxyTc, 6-demethyl-6-deoxytetracycline] | 20 (≈ 48.3 µM) | 7 (≈ 16.9 µM) | 20 (≈ 48.3 µM) | capable of detecting |  |  | 
2 | Cc1c2c(c(O)c3c(O)cccc13)C(=O)C1(O)C(O)=C(C(N)=O)C(=O)C(N(C)C)C1C2 (stereo not drawn) [AnhydroTc] | 3 (≈ 7.04 µM) | 2 (≈ 4.69 µM) | 2 (≈ 4.69 µM) |  |  |  | 
3 | CN(C)[C@@H]1C(O)=C(C(N)=O)C(=O)[C@@]2(O)C(O)=C3C(=O)c4c(O)ccc(Cl)c4[C@@](C)(O)[C@H]3C[C@@H]12 [ChlorTc, chlortetracycline] | 50 (≈ 104 µM) | 40 (≈ 83.5 µM) | 40 (≈ 83.5 µM) | capable of detecting |  |  | 
4 | C[C@H]1c2cccc(O)c2C(O)=C2C(=O)[C@]3(O)C(O)=C(C(N)=O)C(=O)[C@@H](N(C)C)[C@@H]3[C@@H](O)[C@@H]21 [DoxyTc, doxycycline] | 40 (≈ 90 µM) | 7 (≈ 15.8 µM) | 20 (≈ 45 µM) | capable of detecting |  |  | 
5 | CN(C)c1ccc(O)c2c1C[C@H]1C[C@H]3[C@H](N(C)C)C(O)=C(C(N)=O)C(=O)[C@@]3(O)C(O)=C1C2=O [Minocycline] | 14 (≈ 30.6 µM) | 4 (≈ 8.74 µM) | 8 (≈ 17.5 µM) | capable of detecting |  |  | 
6 | Nc1ccc(S(=O)(=O)Nc2ncccn2)cc1 [Sulfadiazine] |  |  |  |  | - | - | 
7 | Cc1nnc(NS(=O)(=O)c2ccc(N)cc2)s1 [Sulfamethizole] |  |  |  |  | - |  | -
8 | Nc1ccc(S(=O)(=O)Nc2nccs2)cc1 [Sulfathiazole] |  |  |  |  | - |  | -
9 | CC1(C)S[C@@H]2[C@H](NC(=O)[C@H](C(=O)O)c3ccsc3)C(=O)N2[C@H]1C(=O)O [Ticarcillin] |  |  |  |  | + |  | +
10 | NC[C@H]1O[C@H](O[C@H]2[C@H](O)[C@@H](O[C@H]3O[C@H](CO)[C@@H](O)[C@H](N)[C@H]3O)[C@H](N)C[C@@H]2N)[C@H](N)C[C@@H]1O [Tobramycin] |  |  |  |  | - |  | -
11 | CN[C@H](CC(C)C)C(=O)N[C@H]1C(=O)N[C@@H](CC(N)=O)C(=O)N[C@H]2C(=O)N[C@H]3C(=O)N[C@H](C(=O)N[C@H](C(=O)O)c4cc(O)cc(O)c4-c4cc3ccc4O)[C@H](O)c3ccc(c(Cl)c3)Oc3cc2cc(c3O[C@@H]2O[C@H](CO)[C@@H](O)[C@H](O)[C@H]2O[C@H]2C[C@](C)(N)[C@H](O)[C@H](C)O2)Oc2ccc(cc2Cl)[C@H]1O [Vancomycin] |  |  |  |  | - | ± | 
12 | CN(C)C1C(=O)C(C(N)=O)=C(O)C2(O)C(=O)C3=C(O)c4c(O)cccc4C(C)(O)C3C(O)C12 (stereo not drawn) [oxyTc] | > 300 | 250 (≈ 543 µM) | 300 (≈ 652 µM) |  |  |  | 
13 | Bacitracin |  |  |  |  | - |  | -
14 | Colistin |  |  |  |  | - |  | -
15 | Gentamicin |  |  |  |  | - |  | -
16 | Polymyxin B |  |  |  |  | - |  | -
